Counter-ions that a name gives are not always drawn. Like-named read-outs stand apart in the source and are kept apart here. Where only a bound is given, the exact number is not on record here.

One series concerns the target TMPRSS2 (Homo sapiens, UniProt O15393). Kind of series: TMPRSS2 enzyme inhibition assay (fluorescence-quenched peptide substrate). The class given is biochemical. The following applies: enzymatic assay.
Series [1] relates to ACE2/TMPRSS2-dependant SARS-CoV-2 S protein-mediated membrane fusion. Kind of series: microbe, parasite or virus in culture. The class given is cell-based.
The subject of series [2] is DSP1-7 and DSP8-11 co-expressing 293FT cells. Kind of series: cells. The class given is cell-based. The conditions noted are these: TMPRSS2-independent / DSP reassociation control; read-out: CoTF Assay IC50.
The next series has as its system SARS-CoV-2 pseudovirus. Kind of series: microbe, parasite or virus in culture. The class given is cell-based. The conditions noted are these: Severe acute respiratory syndrome-related coronavirus; for inhibition at 100 µM: VeroE6/TMPRSS2, read-out: SARS-CoV-2 Pseudovirus % Inhibition; for IC50: VeroE6/TMPRSS2, read-out: SARS-CoV-2 Pseudovirus IC50.
Another series relates to VeroE6-TMPRSS2 cells. Kind of series: Cell toxicity assay (Celltiter-Glo). The class given is cell-based. The following applies: 24 h, read-out: Cell Viability Inhibition IC50. On the technique in general: Cellular ATP, detected with luciferase, serves as a proxy for viable cell number.
Another series concerns the target thrombin (Homo sapiens, UniProt P00734). Kind of series: Thrombin enzyme inhibition assay. The class given is biochemical.
The target of another series is factor Xa (Homo sapiens, UniProt P00742). Kind of series: Factor Xa enzyme inhibition assay. The class given is biochemical.
factor Xa, sequence (P00742 235-488 limits assumed): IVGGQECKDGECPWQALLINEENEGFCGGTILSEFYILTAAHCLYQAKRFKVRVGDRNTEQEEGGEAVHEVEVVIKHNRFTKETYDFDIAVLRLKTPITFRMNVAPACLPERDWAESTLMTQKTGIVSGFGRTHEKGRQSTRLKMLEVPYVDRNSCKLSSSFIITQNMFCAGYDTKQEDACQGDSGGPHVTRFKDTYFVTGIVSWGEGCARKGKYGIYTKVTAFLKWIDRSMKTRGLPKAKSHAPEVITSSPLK
factor Xa, sequence (P00742 41-179 partner limits assumed): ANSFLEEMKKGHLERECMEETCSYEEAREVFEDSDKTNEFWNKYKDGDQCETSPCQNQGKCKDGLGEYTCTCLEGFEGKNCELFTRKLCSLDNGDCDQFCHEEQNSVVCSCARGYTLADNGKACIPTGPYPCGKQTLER
The conditions of series [3]: cited from earlier work.
[4] abbreviates: Severe acute respiratory syndrome coronavirus 2, read-out: S2TA Assay IC50.

TMPRSS2, sequence (O15393 whole entry, the tested form may be a part): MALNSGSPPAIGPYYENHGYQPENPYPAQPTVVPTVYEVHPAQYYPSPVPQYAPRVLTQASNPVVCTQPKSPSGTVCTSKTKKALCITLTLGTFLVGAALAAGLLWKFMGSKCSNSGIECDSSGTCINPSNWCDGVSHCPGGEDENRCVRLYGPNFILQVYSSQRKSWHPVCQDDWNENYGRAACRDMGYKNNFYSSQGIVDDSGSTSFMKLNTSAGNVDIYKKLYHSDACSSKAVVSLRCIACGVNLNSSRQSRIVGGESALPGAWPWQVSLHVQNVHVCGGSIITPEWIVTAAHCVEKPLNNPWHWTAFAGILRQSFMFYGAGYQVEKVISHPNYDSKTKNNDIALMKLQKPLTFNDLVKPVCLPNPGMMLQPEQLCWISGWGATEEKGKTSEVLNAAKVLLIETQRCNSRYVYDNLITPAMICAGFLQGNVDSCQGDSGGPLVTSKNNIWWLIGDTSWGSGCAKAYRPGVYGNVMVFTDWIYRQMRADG

For the compound `N=C(N)c1ccc2nc(-c3cccc(-c4nc5ccc(C(=N)N)cc5[nH]4)n3)[nH]c2c1` (as salt: HCl) [Compound 10], the melting point was greater than 300 °C.
For `N=C(N)c1ccc(-c2ccc(-c3ccc(C(=N)N)cc3)o2)cc1` [Compound 7], the concentration for half-maximal inhibition (IC50) against TMPRSS2 is 82.7 µM; in series [1] (setting [4]), greater than 100 µM; in series [2] it was greater than 100 µM; with SARS-CoV-2 pseudovirus, greater than 100 µM; with VeroE6-TMPRSS2 cells, greater than 100 µM; against thrombin it was 79.1 µM. The same compound returned an IC50 on factor Xa of 30.9 µM. Also, in the series on SARS-CoV-2 pseudovirus, the inhibition at 100 µM was 2.66%. Also, the “fold less potential factor Xa inhibitor relative to pentamidine” value on factor Xa (relative to pentamidine) was 5 fold.
As for `N=C(N)c1ccc2nc(-c3cccc(-c4nc5ccc(C(=N)N)cc5[nH]4)n3)[nH]c2c1` [Compound 10], the 50% inhibitory concentration (IC50) was 37.8 µM in series [2], 0.921 µM at thrombin and 5.93 µM against factor Xa.
With `CC(C)NC(=N)c1ccc2nc(-c3cccc(-c4nc5ccc(C(=N)NC(C)C)cc5[nH]4)n3)[nH]c2c1` [Compound 11], the IC50 is greater than 10 µM against TMPRSS2; greater than 100 µM in series [1] (setting [4]); greater than 100 µM in series [2]; greater than 100 µM in the series on SARS-CoV-2 pseudovirus; greater than 100 µM with VeroE6-TMPRSS2 cells; greater than 1 µM against thrombin. The IC50 against factor Xa is greater than 1 µM. Moreover, in the series on SARS-CoV-2 pseudovirus, the inhibition at 100 µM came out at 27%.
Regarding `N=C(N)c1ccc2nc(-c3cccc(-c4nc5ccc(C(=N)N)cc5[nH]4)c3)[nH]c2c1` [Compound 12], the IC50 was 4.89 µM against TMPRSS2; greater than 100 µM in series [1] (setting [4]); greater than 100 µM in series [2]; greater than 100 µM in the series with SARS-CoV-2 pseudovirus; greater than 100 µM with VeroE6-TMPRSS2 cells; 0.862 µM on thrombin. 34.1 µM corresponded to half-maximal inhibition against factor Xa (IC50). Also, in the series with SARS-CoV-2 pseudovirus, the inhibition at 100 µM amounted to 17.1%.
With `N=C(N)c1ccc2nc(-c3ccc(-c4cccc(-c5ccc(-c6nc7ccc(C(=N)N)cc7[nH]6)cc5)n4)cc3)[nH]c2c1` [Compound 13], the IC50 against TMPRSS2 was 72.4 µM; in [1] (setting [4]) it was 13.7 µM; in series [2], 37 µM; with SARS-CoV-2 pseudovirus it was greater than 100 µM; with VeroE6-TMPRSS2 cells it was greater than 100 µM; at thrombin, 0.929 µM. This compound also returned an IC50 against factor Xa of 4.89 µM. Besides, the inhibition at 100 µM in the series with SARS-CoV-2 pseudovirus came out at 20.5%.
For `CC(C)NC(=N)c1ccc2nc(-c3ccc(-c4cccc(-c5ccc(-c6nc7ccc(C(=N)NC(C)C)cc7[nH]6)cc5)n4)cc3)[nH]c2c1` [Compound 14], the IC50 is greater than 100 µM at TMPRSS2; 16.9 µM in series [1] (setting [4]); 10.9 µM in series [1] (read-out: S2TA Assay IC50); 31 µM in series [2]; 83.7 µM in the series with SARS-CoV-2 pseudovirus; greater than 100 µM with VeroE6-TMPRSS2 cells. The IC50 is 2.25 µM against thrombin and greater than 10 µM at factor Xa. Also, the inhibition at 100 µM in the series with SARS-CoV-2 pseudovirus turned out to be 77.4%.
With `N=C(N)c1ccc2cc(OC(=O)c3ccc(N=C(N)N)cc3)ccc2c1` [Nafamostat, nafamostat, reference compound], the half-inhibitory concentration (IC50) is 0.0341 µM at thrombin and 1.74 µM against factor Xa. Also, in [3], the plasma half-life result is listed as “less than 1 min”.
Consider `N=C(N)c1ccc(OCCCCCOc2ccc(C(=N)N)cc2)cc1` [Pentamidine, pentamidine, reference compound], for which the IC50 at TMPRSS2 was 3.98 µM; in series [1] (setting [4]) it was 32.3 µM; in series [2] it was greater than 100 µM; in the series with SARS-CoV-2 pseudovirus it was 45 µM; in the series with VeroE6-TMPRSS2 cells it was greater than 100 µM; at thrombin, 1.51 µM. On factor Xa, this compound came in with an IC50 of 6.22 µM. The inhibition at 100 µM in the series with SARS-CoV-2 pseudovirus is 69.5%.
With `CN(C)C(=O)COC(=O)Cc1ccc(OC(=O)c2ccc(NC(=N)N)cc2)cc1` [camostat], in series [3], the plasma half-life is 23.1 min.

One may read the melting point as the temperature, or range, at which the solid turns liquid. Broadly, the IC50 is the midpoint of a concentration-inhibition curve. What is called inhibition is the drop in the measured response relative to a control, in per cent.

The values are drawn from paper PMC10223987 (Viruses, 2023).
